Reference: PubChem BioAssay AID192 (DTP/NCI, 2004)
“And” between values parts separate entries of the source, which are not always exact repeats. Equal entries are not always repeated. Toxic doses and inconclusive results are not listed. Rule for the calls: active = survival T/C of 150% or more; inactive = T/C below 125% in these data.

System: BDF1 mice, B16 melanoma ip, median survival T/C
Assay: NCI In Vivo Anticancer Drug Screen. Data for tumor model B16 Melanoma (intraperitoneal) in B6D2F1 (BDF1) mice
Conditions: endpoint: median survival time, higher = longer survival
Procedure, shortened: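 Survival or tumor size is measured after treatment of tumor-bearing mice and normalised to the vehicle-treated control group.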

[1] = dose: 100.0 mg/kg/injection, schedule: Q04DX003 (ip), vehicle: Klucel (hydroxypropylcellulose) (HPC)

Measured: T/C

C/C=C(\C)c1cc(=O)c2c(C)cc3c(c2o1)C(=O)c1c(O)c(C2CC(C)(N(C)C)C(OC(C)=O)C(C)O2)cc(C2CC(N(C)C)C(O)C(C)O2)c1C3=O (stereo not drawn)
inactive: dose: 0.16 mg/kg/injection, schedule: Q01DX009 (ip), vehicle: saline 103 % of control | dose: 0.31 mg/kg/injection, schedule: Q01DX009 (ip), vehicle: saline 103 % of control | dose: 0.62 mg/kg/injection, schedule: Q01DX009 (ip), vehicle: saline 102 % of control | dose: 1.25 mg/kg/injection, schedule: Q01DX009 (ip), vehicle: saline 91 % of control and 110 % of control | dose: 2.5 mg/kg/injection, schedule: Q01DX009 (ip), vehicle: saline 124 % of control

COC(=O)[C@H]1[C@H]2C[C@@H]3c4[nH]c5cc(OC)ccc5c4CCN3C[C@H]2C[C@@H](OC(=O)c2cc(OC)c(OC)c(OC)c2)[C@@H]1OC
inactive: dose: 0.04 mg/kg/injection, schedule: Q01DX009 (ip), vehicle: saline 91 % of control | dose: 0.09 mg/kg/injection, schedule: Q01DX009 (ip), vehicle: saline 91 % of control | dose: 0.19 mg/kg/injection, schedule: Q01DX009 (ip), vehicle: saline 90 % of control | dose: 0.39 mg/kg/injection, schedule: Q01DX009 (ip), vehicle: saline 91 % of control | dose: 0.78 mg/kg/injection, schedule: Q01DX009 (ip), vehicle: saline 88 % of control

CC(=O)[O][Sn]([CH2]c1ccccc1)([CH2]c1ccccc1)[CH2]c1ccccc1
inactive: dose: 1.5 mg/kg/injection, schedule: Q01DX009 (ip), vehicle: other 101 % of control | dose: 3.0 mg/kg/injection, schedule: Q01DX009 (ip), vehicle: other 96 % of control | dose: 6.0 mg/kg/injection, schedule: Q01DX009 (ip), vehicle: other 103 % of control | dose: 6.25 mg/kg/injection, schedule: Q01DX009 (ip), vehicle: other 111 % of control

O=C1Cc2cccc3c2C(C1)CN3C(=O)c1ccccc1 (stereo not drawn)
inactive: [1] 101 % of control | dose: 200.0 mg/kg/injection, schedule: Q04DX003 (ip), vehicle: Klucel (hydroxypropylcellulose) (HPC) 106 % of control | dose: 400.0 mg/kg/injection, schedule: Q04DX003 (ip), vehicle: Klucel (hydroxypropylcellulose) (HPC) 110 % of control

O=C/C(Br)=C\c1ccccc1
inactive: dose: 25.0 mg/kg/injection, schedule: Q04DX003 (ip), vehicle: Klucel (hydroxypropylcellulose) (HPC) 96 % of control | dose: 50.0 mg/kg/injection, schedule: Q04DX003 (ip), vehicle: Klucel (hydroxypropylcellulose) (HPC) 103 % of control | [1] 96 % of control

c1ccc(OP(Oc2ccccc2)c2ccccc2)cc1
inactive: dose: 50.0 mg/kg/injection, schedule: Q01DX009 (ip), vehicle: acetone 113 % of control | dose: 100.0 mg/kg/injection, schedule: Q01DX009 (ip), vehicle: acetone 100 % of control | dose: 200.0 mg/kg/injection, schedule: Q01DX009 (ip), vehicle: acetone 100 % of control
